# System: MV-4-11 cells
# Assay: Gene expression microarray analysis (Affymetrix PrimeView) and GSEA
# Assay type: cell-based, human
# Parameters: RFU PODN (11730768_x_at) / Fold change /veh PODN (11730768_x_at) / RFU LINC00158 (11744669_a_at) / Fold change /veh LINC00158 (11744669_a_at) / RFU DUSP10 (11751237_a_at) / Fold change /veh DUSP10 (11751237_a_at) / RFU ID3 (11757404_x_at) / Fold change /veh ID3 (11757404_x_at) / RFU PLEKHG5 (11737974_s_at) / Fold change /veh PLEKHG5 (11737974_s_at) / RFU LRRC4B (11730491_at) / Fold change /veh LRRC4B (11730491_at) / RFU GIMAP4 (11747438_a_at) / Fold change /veh GIMAP4 (11747438_a_at) / RFU KRT8 (11758183_x_at) / Fold change /veh KRT8 (11758183_x_at) / RFU CNN1 (11734310_a_at) / Fold change /veh CNN1 (11734310_a_at) / RFU VPS37D (11726825_at) / Fold change /veh VPS37D (11726825_at) / RFU C10orf10 (11716522_x_at) / Fold change /veh C10orf10 (11716522_x_at) / RFU KIR2DL2 /// KIR2DL4 /// KIR2DL5A /// KIR2DL5B /// KIR2DS1 /// KIR2DS2 /// KIR2DS3 /// KIR2DS4 /// KIR3DL3 /// KIR3DL3 /// KIR3DS1 (11738374_at) / Fold change /veh KIR2DL2 /// KIR2DL4 /// KIR2DL5A /// KIR2DL5B /// KIR2DS1 /// KIR2DS2 /// KIR2DS3 /// KIR2DS4 /// KIR3DL3 /// KIR3DL3 /// KIR3DS1 (11738374_at) / RFU C1QL1 (11718748_at) / Fold change /veh C1QL1 (11718748_at) / RFU TMPRSS4 (11747572_a_at) / Fold change /veh TMPRSS4 (11747572_a_at) / RFU HAMP (11756126_x_at) / Fold change /veh HAMP (11756126_x_at) / RFU RNFT2 (11725882_a_at) / Fold change /veh RNFT2 (11725882_a_at) / RFU NR4A2 (11747474_a_at) / Fold change /veh NR4A2 (11747474_a_at) / RFU ABCC12 (11746883_a_at) / Fold change /veh ABCC12 (11746883_a_at) / RFU TMEM136 (11760407_x_at) / Fold change /veh TMEM136 (11760407_x_at) / RFU CLDN22 /// WWC2 (11732394_at) / Fold change /veh CLDN22 /// WWC2 (11732394_at) / RFU HLA-DPB1 (11760878_x_at) / Fold change /veh HLA-DPB1 (11760878_x_at) / RFU SPINT1 (11716480_a_at) / Fold change /veh SPINT1 (11716480_a_at) / RFU GAP43 (11754022_s_at) / Fold change /veh GAP43 (11754022_s_at) / RFU A4GNT (11735810_at) / Fold change /veh A4GNT (11735810_at) / RFU PRB3 (11715151_x_at) / Fold change /veh PRB3 (11715151_x_at) / RFU TUBB4B (11761932_at) / Fold change /veh TUBB4B (11761932_at) / RFU CAPN14 (11732068_a_at) / Fold change /veh CAPN14 (11732068_a_at) / RFU TMCC2 (11721928_a_at) / Fold change /veh TMCC2 (11721928_a_at) / RFU IRGQ (11745062_a_at) / Fold change /veh IRGQ (11745062_a_at) / RFU FAM174B (11720279_a_at) / Fold change /veh FAM174B (11720279_a_at) / RFU TMPRSS4 (11748680_a_at) / Fold change /veh TMPRSS4 (11748680_a_at) / RFU FAM212B (11763350_a_at) / Fold change /veh FAM212B (11763350_a_at) / RFU PLEKHG5 (11743358_a_at) / Fold change /veh PLEKHG5 (11743358_a_at) / RFU ZSCAN30 (11745921_a_at) / Fold change /veh ZSCAN30 (11745921_a_at) / RFU CMKLR1 (11741424_a_at) / Fold change /veh CMKLR1 (11741424_a_at) / RFU LOC101060620 /// MAPK8IP1 (11723275_at) / Fold change /veh LOC101060620 /// MAPK8IP1 (11723275_at) / RFU SPTSSB (11747773_x_at) / Fold change /veh SPTSSB (11747773_x_at) / RFU PRSS12 (11739890_at) / Fold change /veh PRSS12 (11739890_at) / RFU BIN1 (11741810_x_at) / Fold change /veh BIN1 (11741810_x_at) / RFU WNT11 (11732464_a_at) / Fold change /veh WNT11 (11732464_a_at) / RFU C10orf10 (11716521_a_at) / Fold change /veh C10orf10 (11716521_a_at) / RFU C5orf56 (11738089_at) / Fold change /veh C5orf56 (11738089_at) / RFU CYB561 (11721691_x_at) / Fold change /veh CYB561 (11721691_x_at) / RFU ANKRD19P (11752326_a_at) / Fold change /veh ANKRD19P (11752326_a_at) / RFU OR2T12 /// OR2T33 /// OR2T8 (11738714_s_at) / Fold change /veh OR2T12 /// OR2T33 /// OR2T8 (11738714_s_at) / RFU VCAN (11748164_a_at) / Fold change /veh VCAN (11748164_a_at) / RFU JSRP1 (11732532_at) / Fold change /veh JSRP1 (11732532_at) / RFU KRTAP10-11 (11738290_x_at) / Fold change /veh KRTAP10-11 (11738290_x_at) / RFU MYO3A (11730013_a_at) / Fold change /veh MYO3A (11730013_a_at) / RFU EBF3 (11725865_a_at) / Fold change /veh EBF3 (11725865_a_at) / RFU CAMK2N1 (11719241_x_at) / Fold change /veh CAMK2N1 (11719241_x_at) / RFU C5orf56 (11738088_a_at) / Fold change /veh C5orf56 (11738088_a_at) / RFU OLFML3 (11715873_a_at) / Fold change /veh OLFML3 (11715873_a_at) / RFU LOC100653217 /// NTM (11731650_a_at) / Fold change /veh LOC100653217 /// NTM (11731650_a_at) / RFU MAPK11 (11762145_a_at) / Fold change /veh MAPK11 (11762145_a_at) / RFU FIZ1 (11724087_x_at) / Fold change /veh FIZ1 (11724087_x_at) / RFU OASL (11726364_x_at) / Fold change /veh OASL (11726364_x_at) / RFU SOX15 (11748057_x_at) / Fold change /veh SOX15 (11748057_x_at) / RFU CD79A (11719716_a_at) / Fold change /veh CD79A (11719716_a_at) / RFU HIST1H1D (11736915_at) / Fold change /veh HIST1H1D (11736915_at) / RFU CASKIN2 (11723855_a_at) / Fold change /veh CASKIN2 (11723855_a_at) / RFU LOC730098 (11760151_x_at) / Fold change /veh LOC730098 (11760151_x_at) / RFU OR4N2 (11742367_at) / Fold change /veh OR4N2 (11742367_at) / RFU PRRT2 (11749266_a_at) / Fold change /veh PRRT2 (11749266_a_at) / RFU SNX32 (11753110_a_at) / Fold change /veh SNX32 (11753110_a_at) / RFU CDHR5 (11726645_a_at) / Fold change /veh CDHR5 (11726645_a_at) / RFU RCAN1 (11760418_a_at) / Fold change /veh RCAN1 (11760418_a_at) / RFU FAM167A (11723789_a_at) / Fold change /veh FAM167A (11723789_a_at) / RFU FAM26E (11764081_at) / Fold change /veh FAM26E (11764081_at) / RFU ISYNA1 (11749810_s_at) / Fold change /veh ISYNA1 (11749810_s_at) / RFU ACY1 (11761880_at) / Fold change /veh ACY1 (11761880_at) / RFU 11764098_at / Fold change /veh 11764098_at / RFU SAMD14 (11745864_x_at) / Fold change /veh SAMD14 (11745864_x_at) / RFU NPB (11741838_a_at) / Fold change /veh NPB (11741838_a_at) / RFU TMPRSS6 (11731388_a_at) / Fold change /veh TMPRSS6 (11731388_a_at) / RFU KRTAP10-2 (11738614_at) / Fold change /veh KRTAP10-2 (11738614_at) / RFU ARHGAP8 /// PRR5-ARHGAP8 (11727945_x_at) / Fold change /veh ARHGAP8 /// PRR5-ARHGAP8 (11727945_x_at) / RFU KRTAP5-7 /// NADSYN1 (11734609_at) / Fold change /veh KRTAP5-7 /// NADSYN1 (11734609_at) / RFU RASL12 (11751679_a_at) / Fold change /veh RASL12 (11751679_a_at) / RFU CDKN2B (11736163_a_at) / Fold change /veh CDKN2B (11736163_a_at) / RFU PRF1 (11729649_at) / Fold change /veh PRF1 (11729649_at) / RFU, ZNF638 /// ZNF638-IT1 / Fold change vs veh, ZNF638 /// ZNF638-IT1 / RFU, PANK3 / Fold change vs veh, PANK3 / RFU, SH3YL1 / Fold change vs veh, SH3YL1 / RFU, ZEB2 / Fold change vs veh, ZEB2 / RFU, NRIP1 / Fold change vs veh, NRIP1 / RFU, PTTG1IP / Fold change vs veh, PTTG1IP / RFU, CAPN2 / Fold change vs veh, CAPN2 / RFU, MED14 / Fold change vs veh, MED14 / RFU, SNORA58 / Fold change vs veh, SNORA58 / RFU, C1orf63 / Fold change vs veh, C1orf63 / RFU, LRRFIP1 / Fold change vs veh, LRRFIP1 / RFU, NDUFAF7 / Fold change vs veh, NDUFAF7 / RFU, SLC12A2 / Fold change vs veh, SLC12A2 / RFU, IBTK / Fold change vs veh, IBTK / RFU, ESF1 / Fold change vs veh, ESF1 / Fold change vs veh, TMEM50B / RFU, TAOK1 / Fold change vs veh, TAOK1 / RFU, ACBD3 / Fold change vs veh, ACBD3 / RFU, TMA16 / Fold change vs veh, TMA16 / RFU, RWDD3 / Fold change vs veh, RWDD3 / RFU, BCAT1 / Fold change vs veh, BCAT1 / RFU, EDEM3 / Fold change vs veh, EDEM3 / RFU, TMEM33 / Fold change vs veh, TMEM33 / RFU, WDR75 / Fold change vs veh, WDR75 / RFU, AHCTF1 / Fold change vs veh, AHCTF1 / RFU, TFRC / Fold change vs veh, TFRC / RFU, ZDHHC17 / Fold change vs veh, ZDHHC17 / RFU, NOM1 / Fold change vs veh, NOM1 / RFU, ARL8B / Fold change vs veh, ARL8B / RFU, ZBTB11 / Fold change vs veh, ZBTB11 / RFU, TAMM41 / Fold change vs veh, TAMM41 / RFU, KIAA1704 /// LOC100996395 / Fold change vs veh, KIAA1704 /// LOC100996395 / RFU, ING1 / Fold change vs veh, ING1 / RFU, TRMT61B / Fold change vs veh, TRMT61B / RFU, FUBP3 / Fold change vs veh, FUBP3 / RFU, TP53 / Fold change vs veh, TP53 / RFU, TNKS2 / Fold change vs veh, TNKS2 / RFU, ZFP14 / Fold change vs veh, ZFP14 / RFU, ACTR2 / Fold change vs veh, ACTR2 / RFU, PPP3R1 / Fold change vs veh, PPP3R1 / RFU, PIK3R1 / Fold change vs veh, PIK3R1 / RFU, HNRNPA1 / Fold change vs veh, HNRNPA1 / RFU, RNF170 / Fold change vs veh, RNF170 / RFU, ZNF28 / Fold change vs veh, ZNF28 / RFU, RNGTT / Fold change vs veh, RNGTT / RFU, OGT / Fold change vs veh, OGT / RFU, BRD1 / Fold change vs veh, BRD1 / RFU, MARS / Fold change vs veh, MARS / RFU, ZNF655 / Fold change vs veh, ZNF655 / RFU, FAHD1 / Fold change vs veh, FAHD1 / RFU, BDP1 / Fold change vs veh, BDP1 / RFU, LRRCC1 / Fold change vs veh, LRRCC1 / RFU, ARID1A / Fold change vs veh, ARID1A / RFU, ZNF146 / Fold change vs veh, ZNF146 / RFU, ZNF330 / Fold change vs veh, ZNF330 / RFU, GPN3 / Fold change vs veh, GPN3 / RFU, C9orf123 / Fold change vs veh, C9orf123 / RFU, N4BP2L2 / Fold change vs veh, N4BP2L2 / RFU, ARFIP1 / Fold change vs veh, ARFIP1 / RFU, FAM179B / Fold change vs veh, FAM179B / RFU, BCL10 / Fold change vs veh, BCL10 / RFU, UHRF1BP1L / Fold change vs veh, UHRF1BP1L / RFU, BET1 / Fold change vs veh, BET1 / RFU, CNOT2 / Fold change vs veh, CNOT2 / RFU, ZNF268 / Fold change vs veh, ZNF268 / Fold change vs veh, ZNF507 / RFU, DGCR2 / Fold change vs veh, DGCR2 / RFU, WDSUB1 / Fold change vs veh, WDSUB1 / Fold change vs veh, HSP90B1 /// MIR3652 / RFU, ADSS / Fold change vs veh, ADSS / RFU, GK / Fold change vs veh, GK / RFU, ZNF148 / Fold change vs veh, ZNF148 / RFU, TAF9 / Fold change vs veh, TAF9 / RFU, SLC1A5 / Fold change vs veh, SLC1A5 / RFU, SLMO2 / Fold change vs veh, SLMO2 / RFU, ABCC4 / Fold change vs veh, ABCC4 / RFU, LOC101060439 /// RAP1B / Fold change vs veh, LOC101060439 /// RAP1B / RFU, RFX7 / Fold change vs veh, RFX7 / RFU, GTPBP10 / Fold change vs veh, GTPBP10 / RFU, CNEP1R1 / Fold change vs veh, CNEP1R1 / RFU, BIVM-ERCC5 /// ERCC5 / Fold change vs veh, BIVM-ERCC5 /// ERCC5 / RFU, ILF3 / Fold change vs veh, ILF3 / RFU 11762660_at / Fold change /veh 11762660_at / RFU VCAN (11757783_s_at) / Fold change /veh VCAN (11757783_s_at) / RFU DDX43 (11728927_at) / Fold change /veh DDX43 (11728927_at) / RFU KRT8 (11758188_x_at) / Fold change /veh KRT8 (11758188_x_at) / RFU NKD1 (11759106_at) / Fold change /veh NKD1 (11759106_at) / RFU SRD5A1 (11742802_a_at) / Fold change /veh SRD5A1 (11742802_a_at) / RFU TPSAB1 /// TPSB2 (11721975_s_at) / Fold change /veh TPSAB1 /// TPSB2 (11721975_s_at) / RFU GSTM3 (11746129_a_at) / Fold change /veh GSTM3 (11746129_a_at) / RFU IL23R (11737362_x_at) / Fold change /veh IL23R (11737362_x_at) / RFU TMEM51 (11727254_a_at) / Fold change /veh TMEM51 (11727254_a_at) / RFU PIWIL2 (11732686_x_at) / Fold change /veh PIWIL2 (11732686_x_at) / RFU ORM1 (11744905_x_at) / Fold change /veh ORM1 (11744905_x_at) / RFU CCDC152 (11743942_at) / Fold change /veh CCDC152 (11743942_at) / RFU ECM1 (11717891_a_at) / Fold change /veh ECM1 (11717891_a_at) / RFU IL23R (11748794_a_at) / Fold change /veh IL23R (11748794_a_at) / RFU TNFAIP8L3 (11732012_x_at) / Fold change /veh TNFAIP8L3 (11732012_x_at) / RFU MBOAT4 (11741988_at) / Fold change /veh MBOAT4 (11741988_at) / RFU 11764193_at / Fold change /veh 11764193_at / RFU TMEM53 (11763286_at) / Fold change /veh TMEM53 (11763286_at) / RFU MAGEB2 (11727129_at) / Fold change /veh MAGEB2 (11727129_at) / RFU TMEM200A (11744735_a_at) / Fold change /veh TMEM200A (11744735_a_at) / RFU CCDC152 (11751479_a_at) / Fold change /veh CCDC152 (11751479_a_at) / RFU FAM211A (11726209_a_at) / Fold change /veh FAM211A (11726209_a_at) / RFU RGS16 (11746705_a_at) / Fold change /veh RGS16 (11746705_a_at) / RFU VCAN (11755009_s_at) / Fold change /veh VCAN (11755009_s_at) / RFU RHOB (11743442_s_at) / Fold change /veh RHOB (11743442_s_at) / RFU RGS16 (11720943_a_at) / Fold change /veh RGS16 (11720943_a_at) / RFU RGS16 (11720944_at) / Fold change /veh RGS16 (11720944_at) / RFU, VPS4B / Fold change vs veh, VPS4B / RFU, CREB1 / Fold change vs veh, CREB1 / RFU, DNAJC13 / Fold change vs veh, DNAJC13 / RFU, GNAQ / Fold change vs veh, GNAQ / RFU, CDK5R1 / Fold change vs veh, CDK5R1 / RFU, ZRANB3 / Fold change vs veh, ZRANB3 / RFU, CUL4A / Fold change vs veh, CUL4A / RFU, CCNY / Fold change vs veh, CCNY / RFU, UFL1 / Fold change vs veh, UFL1 / RFU, COG3 / Fold change vs veh, COG3 / RFU, DIAPH2 / Fold change vs veh, DIAPH2 / RFU, SKA2 / Fold change vs veh, SKA2 / RFU, AFF3 / Fold change vs veh, AFF3 / RFU, LMF1 / Fold change vs veh, LMF1 / RFU, IPO11 / Fold change vs veh, IPO11 / RFU, DFFB / Fold change vs veh, DFFB / RFU, FOXP1 / Fold change vs veh, FOXP1 / RFU, CARD8 / Fold change vs veh, CARD8 / RFU, STRN3 / Fold change vs veh, STRN3 / RFU, ADK / Fold change vs veh, ADK / RFU, RASSF2 / Fold change vs veh, RASSF2 / RFU, WIPF1 / Fold change vs veh, WIPF1 / RFU, LARP1B / Fold change vs veh, LARP1B / RFU, RASA1 / Fold change vs veh, RASA1 / RFU, RB1 / Fold change vs veh, RB1 / RFU, PPFIA1 / Fold change vs veh, PPFIA1 / RFU, MAT2A / Fold change vs veh, MAT2A / RFU, CCT5 / Fold change vs veh, CCT5 / RFU, WDR92 / Fold change vs veh, WDR92 / RFU, CUX1 / Fold change vs veh, CUX1 / RFU, TTC7A / Fold change vs veh, TTC7A / RFU, TMEM135 / Fold change vs veh, TMEM135 / RFU, DEPTOR / Fold change vs veh, DEPTOR / RFU, CPM / Fold change vs veh, CPM / RFU, DNAJB6 / Fold change vs veh, DNAJB6 / RFU, CACNA2D3 / Fold change vs veh, CACNA2D3 / RFU, DTX4 / Fold change vs veh, DTX4 / RFU, TFCP2 / Fold change vs veh, TFCP2 / RFU, GMCL1 /// GMCL1P1 / Fold change vs veh, GMCL1 /// GMCL1P1 / RFU, AEBP2 / Fold change vs veh, AEBP2 / RFU, SNHG1 /// SNORD22 /// SNORD25 /// SNORD26 /// SNORD27 /// SNORD28 /// SNORD29 /// SNORD31 / Fold change vs veh, SNHG1 /// SNORD22 /// SNORD25 /// SNORD26 /// SNORD27 /// SNORD28 /// SNORD29 /// SNORD31 / Fold change (Aza/veh), C12orf56 (ProbeSet 11735607_a_at) / Fold change (ACY-1035/veh), C12orf56 (ProbeSet 11735607_a_at) / Fold change (Aza/veh), FGFR1OP (ProbeSet 11751329_s_at) / Fold change (ACY-1035/veh), FGFR1OP (ProbeSet 11751329_s_at) / Fold change (Aza/veh), VPS36 (ProbeSet 11739960_a_at) / Fold change (ACY-1035/veh), VPS36 (ProbeSet 11739960_a_at) / RFU SYPL1 (11715823_x_at) / Fold change /veh SYPL1 (11715823_x_at) / RFU IGFBP7 (11715501_s_at) / Fold change /veh IGFBP7 (11715501_s_at) / RFU REEP3 (11722064_at) / Fold change /veh REEP3 (11722064_at) / RFU IGLL1 (11728026_x_at) / Fold change /veh IGLL1 (11728026_x_at): dose or concentration left out as unconfirmed
# Conditions: MV-4-11 cells, 48 hours
compound,measurement,value
Nc1ccc(-c2cccs2)cc1NC(=O)c1ccc2c(c1)cc(C1CC1)n2CCN1CCOCC1 [ACY-1035],RFU DUSP10 (11751237_a_at),30.58 RFU
